{"source": "patent US6933126B2", "about": "“Membrane transportable fluorescent substrates” (Applera Corporation, priority 2001, dated 2005)", "key": {"[1]": {"system": "β-galactosidase complementation in FRAP/FKBP12 (B14) cells", "experiment": "FDG detection of rapamycin-induced β-galactosidase complementation in FRAP/FKBP12 (B14) cells", "assay_type": "cell-based", "details": "for Fluorescence (w \"SUPERFECT\") / Fluorescence (w/o \"SUPERFECT\"): 90 min at 37° C.; for Fluorescence (w \"SUPERFECT\"): 0.6 mM FDG with \"SUPERFECT\" carrier; for Fluorescence (w/o \"SUPERFECT\"): 0.6 mM FDG, passive load; for Fluorescence signal to noise ratio (S/N): Induced cells", "method": "A second experiment was conducted to determine the effect of fluorescent substrate complex formation on FDG detection of rapamycin-induced β-galactosidase complementation in FRAP/FKBPI2 (B14) cells.\nA 96-well plate was plated with FRAP/FKBP12 cells at 10,000 cells per well. Half of the cells were incubated overnight with rapamycin to induce β-galactosidase complementation. The next day, the cells were washed with Opti-MEM. Half of the cells were incubated for 90 min at 37° C. with 254 μl 0.6 mM FDG (fluorescein-di-β-D-galactoside) in Opti-MEM. The remaining cells were incubated 90 min at 37° C. with 0.6 mM FDG, containing “SUPERFECT” as a carrier (14 μl “SUPERFECT” in 240 μl 0.6 mM FDG in Opti-MEM).\n(§1) The 96-well plate was read on a Cytofluor 4000 with excitation filter 485/20 and emission filter 530/25. The data was analyzed as triplicate averages."}, "[2]": {"molecular_target": "T1, β-galactosidase in Psi-2-BAG-α cells (Escherichia coli, UniProt P00722)", "T1 construct": "expressed in transfected cells; host or cells: Psi-2-BAG-α cells (own knowledge: mouse NIH-3T3-derived psi-2 packaging line stably carrying the BAG lacZ retroviral vector)", "T1 sequence (P00722 whole entry)": "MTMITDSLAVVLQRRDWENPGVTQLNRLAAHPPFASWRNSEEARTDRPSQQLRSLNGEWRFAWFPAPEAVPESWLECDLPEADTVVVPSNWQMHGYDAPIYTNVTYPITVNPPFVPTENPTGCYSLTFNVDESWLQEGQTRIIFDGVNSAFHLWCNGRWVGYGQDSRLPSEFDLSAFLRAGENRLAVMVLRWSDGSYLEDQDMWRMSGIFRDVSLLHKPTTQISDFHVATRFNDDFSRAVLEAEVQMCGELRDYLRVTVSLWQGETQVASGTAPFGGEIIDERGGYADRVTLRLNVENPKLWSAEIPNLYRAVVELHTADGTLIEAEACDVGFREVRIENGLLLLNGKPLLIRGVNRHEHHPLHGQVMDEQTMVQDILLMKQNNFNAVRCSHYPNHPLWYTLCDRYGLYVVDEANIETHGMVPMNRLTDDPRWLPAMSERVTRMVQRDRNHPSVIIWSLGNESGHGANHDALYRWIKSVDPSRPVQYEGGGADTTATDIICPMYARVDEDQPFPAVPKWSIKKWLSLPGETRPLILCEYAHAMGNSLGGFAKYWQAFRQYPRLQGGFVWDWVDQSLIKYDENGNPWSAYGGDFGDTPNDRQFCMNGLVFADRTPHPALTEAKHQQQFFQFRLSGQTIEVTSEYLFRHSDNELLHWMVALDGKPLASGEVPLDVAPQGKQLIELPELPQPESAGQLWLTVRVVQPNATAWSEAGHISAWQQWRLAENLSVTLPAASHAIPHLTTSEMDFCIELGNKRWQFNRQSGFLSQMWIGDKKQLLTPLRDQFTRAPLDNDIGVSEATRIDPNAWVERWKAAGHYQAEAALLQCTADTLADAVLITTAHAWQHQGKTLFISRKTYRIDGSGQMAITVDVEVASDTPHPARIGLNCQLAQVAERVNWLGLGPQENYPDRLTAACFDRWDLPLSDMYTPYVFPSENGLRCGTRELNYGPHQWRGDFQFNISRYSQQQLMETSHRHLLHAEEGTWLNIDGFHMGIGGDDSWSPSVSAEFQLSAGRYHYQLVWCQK", "experiment": "FDG detection of β-galactosidase in Psi-2-BAG-α cells, passive load vs \"SUPERFECT\" complex", "assay_type": "cell-based", "details": "for Fluorescence (w \"SUPERFECT\") / Fluorescence (w/o \"SUPERFECT\"): Cells + Supernatant, 2 hrs, ex 485/20, em 530/25; for Fluorescence (w \"SUPERFECT\"): 0.6 mM FDG with 25 μl \"SUPERFECT\" carrier; for Fluorescence (w/o \"SUPERFECT\"): 0.6 mM FDG, passive load", "method": "A first experiment was conducted to determine the effect of complex formation on FDG detection of β-galactosidase in Psi-2-BAG-α cells. First, FDG detection was measured using FDG without a transporter or carrier complexed thereto (passive load). This measured value was compared to a measurement using a complex of FDG and an activated polyamino dendrimer (e.g., “SUPERFECT”, which is a trademark of Qiagen N.V.).\nFor the passive load test, two vials of cells were prepared. First, two vials each having 330,000 psi-2-BAG-α cells suspended in 250 μl 0.6 mM FDG in Opti-MEM were prepared. A first vial of cells was incubated at 4° C. for 2 hrs and the second vial of cells was incubated at 37° C. for 2 hrs.\nFor the polyamino dendrimer complex, two vials of cells were prepared in the following manner. First, two vials each having 330,000 psi-2-BAG-α cells suspended in 250 μl 0.6 mM FDG in Opti-MEM containing 25 μl “SUPERFECT” as a polycationic carrier were prepared. The first vial of cells was incubated at 4° C. for 2 hrs and the second vial of cells was incubated at 37° C. for 2 hrs.\nFollowing incubation, 20 μl triplicate samples of the above four cell suspensions (passive/4° C., passive/37° C., “SUPERFECT”/4° C., “SUPERFECT”/37° C.) were added to a 96-well plate.\nas §1"}, "[3]": {"details": "Induced cells (rapamycin overnight)"}}, "data": [{"smiles": "O=C1OC2(c3ccc(O[C@@H]4O[C@H](CO)[C@H](O)[C@H](O)[C@H]4O)cc3Oc3cc(O[C@@H]4O[C@H](CO)[C@H](O)[C@H](O)[C@H]4O)ccc32)c2ccccc21", "note": "[FDG, fluorescein di-β-D-galactopyranoside]", "values": [{"measurement": "Fluorescence (w \"SUPERFECT\")", "setting": "[1]; [3]", "result": "12,721"}, {"measurement": "Fluorescence (w/o \"SUPERFECT\")", "setting": "[1]; [3]", "result": 594}, {"measurement": "Fluorescence signal to noise ratio (S/N)", "setting": "[1]; \"SUPERFECT\" assisted load of FDG", "result": "approximately 37"}, {"measurement": "Fluorescence signal to noise ratio (S/N)", "setting": "[1]; uncomplexed or passive load of FDG (w/o \"SUPERFECT\")", "result": "about 2"}, {"measurement": "Fluorescence (w \"SUPERFECT\")", "setting": "[1]; Uninduced cells", "result": 338}, {"measurement": "Fluorescence (w/o \"SUPERFECT\")", "setting": "[1]; Uninduced cells", "result": 253}, {"measurement": "Fluorescence (w \"SUPERFECT\")", "setting": "[2]; 4° C.", "result": "8,343"}, {"measurement": "Fluorescence (w/o \"SUPERFECT\")", "setting": "[2]; 4° C.", "result": 807}, {"measurement": "Fluorescence (w \"SUPERFECT\")", "setting": "[2]; 37° C.", "result": "33,943"}, {"measurement": "Fluorescence (w/o \"SUPERFECT\")", "setting": "[2]; 37° C.", "result": 2492}, {"measurement": "Increase of fluorescence signal with Superfect-assisted load", "setting": "[2]; Superfect-assisted load of FDG vs passive load", "result": "≥ 10", "unit": "fold"}]}]}
